# Data: US20220106282A1, “TREATMENT FOR BREAST CANCER, INCLUDING TRIPLE-NEGATIVE BREAST CANCER” (priority 2018, published 2022)
# Where “and” joins values, the source holds several entries; their conditions need not be identical. Equal entries are not always repeated. Marks after values point to notes of the source that are not given here.
# Test system: breast tumors in female FVB mice transgenic for HER-2/neu
# Assay: Antitumor activity on model of multiple breast tumors in HER-2/neu transgenic mice
# Protocol: Two adenocarcinoma subtypes can be differentiated, in particular ER+, PR−, and ER−, PR− [2].
# The study was carried out in female FVB mice transgenic for HER-2/neu by conventional category; the strain was obtained from the mouse bank Charles River Laboratories (Italy). At the beginning of the study the animals were 21-41 weeks old having weight of 25 to 30 g.
# The study medicament was administered i.g. using a metal atraumatic gavage (with the procedure corresponds to the oral route of administration in clinical settings). The medicament was administered in a single daily dose (20 mg/kg of body weight) and 5-fold daily dose of 100 mg/kg of body weight. Ex tempore solutions of the medicament for administration were prepared in olive oil (refined olive oil supplemented with unrefined extra virgin olive oil available under Global Village “Clasico” trademark, lot L:183351116, expiry date 26 Apr. 2020, BAIEO, Spain). The administered volume was 0.1 ml per 10 g of a mouse body weight (0.2 ml of a ready-to-use formulation for a mouse of 20 g). The medicament administration was started 24 hours after the randomization. The duration of the administration course was 27-28 days.
# This dose corresponds to a human daily dose of 20 mg/kg.
# The control groups were given the olive oil (placebo).
# The evaluation criteria included the clinical observation data, animals body weights, time of death (if applicable), tumor growth over time, pathomorphological examination data (verification of a neoplasm during autopsy, assessment of toxic effects by macroscopic presentation of changes in the internal organs).
# The animals body weights were recorded before the first administration of the medicaments and then twice per week using a verified high-speed electronic laboratory balance Ohaus Scout Pro (USA) with a maximum load of 2000 g and a measurement step of 0.1 g.
# Macroscopically detectable tumor nodes were measured in animals once per week during weighing process. Two linear dimensions including the largest one and the largest rectangular to the former were recorded for each of the nodes. The largest dimension was taken as a length (a) and the second dimension as a width (b) of the tumor nodes. A tumor volume was calculated by the expression as follows: […]
# The efficacy of the therapy was assessed by recording a change in the average tumor volume, tumor growth inhibition (TGI), and the average total tumor volumes and its change over time in each of the mice.
# The percent of tumor growth inhibition was calculated by the expression as follows:
# TGI=(Vctrl−Vexp)/Vctrl×100(%),
# where Vctrl is an average tumor volume in a control group, and Vexp is an average tumor volume in an experimental group.
# The primary data from individual forms were transferred to Microsoft Excel 2007 books. The group arithmetic average (M) and standard deviation (m) were calculated for all quantitative data. The statistical analysis was performed using the statistical software GraphPad Prism 6.0. The differences between the groups were assessed using ANOVA regression analysis and the Fisher's exact test.
# [1] = 20 mg/kg i.g. daily, Day 27 vs Day −1
smiles,measurement,setting,value
"C[C@H]1Oc2cc(OS(N)(=O)=O)ccc2[C@H]2CC[C@]3(C)C(=O)CCC[C@H]3[C@H]21 [compound of formula (1), 3-O-sulphamoyloxy-7β-methyl-D-homo-6-oxa-8α-estra-1,3,5(10)-trien-17a-one]",Average total volume of tumors in mice (M),"20 mg/kg i.g. daily, Day 6",0.86 cm^3
same,Average volume of tumors present at the beginning of the experiment (M),"20 mg/kg i.g. daily, Day 6",0.32 cm^3
same,Relative change of the average total volume of tumors to that of Day −1 (M),"20 mg/kg i.g. daily, Day 6",20%
same,TGI (average total tumor volume),"20 mg/kg i.g. daily, Day 6",−26%
same,TGI (average tumor volume),"20 mg/kg i.g. daily, Day 6",−7%
same,Average total volume of tumors in mice (M),"20 mg/kg i.g. daily, Day 13",1.04 cm^3
same,Average volume of tumors present at the beginning of the experiment (M),"20 mg/kg i.g. daily, Day 13",0.39 cm^3
same,Relative change of the average total volume of tumors to that of Day −1 (M),"20 mg/kg i.g. daily, Day 13",38** %
same,TGI (average total tumor volume),"20 mg/kg i.g. daily, Day 13",19%
same,TGI (average tumor volume),"20 mg/kg i.g. daily, Day 13",30%
same,Average total volume of tumors in mice (M),"20 mg/kg i.g. daily, Day 20",1.61 cm^3
same,Average volume of tumors present at the beginning of the experiment (M),"20 mg/kg i.g. daily, Day 20",0.6 cm^3
same,Relative change of the average total volume of tumors to that of Day −1 (M),"20 mg/kg i.g. daily, Day 20",101** %
same,TGI (average total tumor volume),"20 mg/kg i.g. daily, Day 20",−7%
same,TGI (average tumor volume),"20 mg/kg i.g. daily, Day 20",9%
same,Average total volume of tumors in mice (M),"20 mg/kg i.g. daily, Day 27",2.19 cm^3
same,Average volume of tumors present at the beginning of the experiment (M),"20 mg/kg i.g. daily, Day 27",0.81 cm^3
same,Relative change of the average total volume of tumors to that of Day −1 (M),"20 mg/kg i.g. daily, Day 27",212** %
same,TGI (average total tumor volume),"20 mg/kg i.g. daily, Day 27",−7%
same,TGI (average tumor volume),"20 mg/kg i.g. daily, Day 27",9%
same,% of change from baseline (average total tumor volume),[1],204%
same,% of change to the initial value (average tumor volume),[1],200%
same,Average total volume of tumors in mice (M),"20 mg/kg i.g. daily, Day −1",0.72 cm^3
same,Average volume of tumors present at the beginning of the experiment (M),"20 mg/kg i.g. daily, Day −1",0.27 cm^3
same,Relative change of the average total volume of tumors to that of Day −1 (M),"20 mg/kg i.g. daily, Day −1",0%
same,TGI (average total tumor volume),"20 mg/kg i.g. daily, Day −1",−71%
same,TGI (average tumor volume),"20 mg/kg i.g. daily, Day −1",−50%
same,"Average volume of new tumors, % less than that of the control group","20 mg/kg i.g. daily, end of observation",18%
same,Absolute number of new tumors,"20 mg/kg i.g. daily, end of study",29
same,Frequency of tumor stabilizations,"20 mg/kg i.g. daily, end of study, volume not increased by more than 20%",19%
same,Average volume of new tumors at the end of the observation period (M),"20 mg/kg i.g. daily, listed as medicament",0.27±0.05 cm^3 and 0.27 cm^3
same,Average total volume of tumors in mice (M),"100 mg/kg i.g. daily, Day 6",0.94 cm^3
same,Average volume of tumors present at the beginning of the experiment (M),"100 mg/kg i.g. daily, Day 6",0.38 cm^3
same,Relative change of the average total volume of tumors to that of Day −1 (M),"100 mg/kg i.g. daily, Day 6",26%
same,TGI (average total tumor volume),"100 mg/kg i.g. daily, Day 6",−38%
same,TGI (average tumor volume),"100 mg/kg i.g. daily, Day 6",−27%
same,Average total volume of tumors in mice (M),"100 mg/kg i.g. daily, Day 13",1.15 cm^3
same,Average volume of tumors present at the beginning of the experiment (M),"100 mg/kg i.g. daily, Day 13",0.46 cm^3
same,Relative change of the average total volume of tumors to that of Day −1 (M),"100 mg/kg i.g. daily, Day 13",68** %
same,TGI (average total tumor volume),"100 mg/kg i.g. daily, Day 13",11%
same,TGI (average tumor volume),"100 mg/kg i.g. daily, Day 13",18%
same,Average total volume of tumors in mice (M),"100 mg/kg i.g. daily, Day 20",1.36 cm^3
same,Average volume of tumors present at the beginning of the experiment (M),"100 mg/kg i.g. daily, Day 20",0.55 cm^3
same,Relative change of the average total volume of tumors to that of Day −1 (M),"100 mg/kg i.g. daily, Day 20",139* %
